# Several values for one entry are separate records, joined by “and”; a condition that tells them apart may be missing. Equal entries are not always repeated.
# Legend:
# Conditions in all cases: in vivo
# [1] = tested on: dagger nematode (Xiphinema index+Xiphinema americanum)
# Xiphinema americanum = tested on: Xiphinema americanum
# [2] = tested on: total plant-parasitic nematode population
# Tylenchorhynchus spp. = tested on: Tylenchorhynchus spp.
# Xiphinema index = tested on: Xiphinema index
# Nonparasitic nematodes = tested on: Nonparasitic nematodes
# Fusarium oxysporum = tested on: Fusarium oxysporum
compound,measurement,setting,value
"CCOP(=O)(NC(C)C)Oc1ccc(SC)c(C)c1 (stereo not shown) [FENAMIPHOS®, FENAMIPHOS]",reduction in the dagger nematode (Xiphinema index+Xiphinema americanum) populations relative to T5,[1],73%
same,Plant-parasitic Nematode Population: Xiphinema americanum,Xiphinema americanum,10.00a per 250 cc soil and 9.00a per 250 cc soil and 5.40a per 250 cc soil
same,decrease in the Xiphinema americanum populations relative to the untreated control,Xiphinema americanum,no effect
same,decrease of the Xiphinema americanum population relative to T5,Xiphinema americanum,not controlled
same,Plant-parasitic Nematode Population: Total,[2],80.00a per 250 cc soil and 94.00a per 250 cc soil and 105.80a per 250 cc soil
same,decrease in overall total plant-parasitic nematode population relative to the untreated control,[2],30% and 31%
same,decrease in overall total plant-parasitic nematodes populations relative to the untreated control,[2],51%
same,reduction in group nematode population without considering the Helicotylenchus nematode species,[2],12%
same,Plant-parasitic Nematode Population: Tylenchorhynchus spp.,Tylenchorhynchus spp.,0.00a per 250 cc soil
same,Plant-parasitic Nematode Population: Xiphinema index,Xiphinema index,30.00a per 250 cc soil
same,population increase in the soil Xiphinema index populations relative to the untreated control,Xiphinema index,30%
same,reduction of Xiphinema index populations,Xiphinema index,84%
"CNC(=S)[S-].[Na+] [Metham Sodium 1X, Metham sodium]",Nonparasitic nematodes,Nonparasitic nematodes,944a Nematodes/250 cc soil and 651d Nematodes/250 cc soil
"CI [Methyl Iodide 0.5X, Methyl iodide]",Fusarium oxysporum,Fusarium oxysporum,3.79a Log (cfu/g soil) and 3.44a Log (cfu/g soil)
"C#CCBr [Propargyl Bromide, Propargyl bromide]",Fusarium oxysporum,Fusarium oxysporum,1.26d Log (cfu/g soil) and 1.10cd Log (cfu/g soil)
same,Nonparasitic nematodes,Nonparasitic nematodes,"1,304a Nematodes/250 cc soil and 1,600cd Nematodes/250 cc soil"

# Source: patent US20010019728A1 (priority 1997, published 2001)
